Assay results published in ChEMBL document CHEMBL3045823, “Synthesis and Herbicidal Activities of the O-Syn and O-Anti Benzyl Epoxycyclopentyl Ethers” (2004).
Activity calls are given as the source filed them. The calls are words filed in the database; no cut-off is given here.

Tests used:
Echinochloa oryzicola [1] = test: Herbicide activity against Echinochloa oryzicola assessed as inhibition of shoot growth compound treated at 3 ppm to seeds measured after 7 days; assay type: functional, organism-based
Echinochloa oryzicola [2] = test: Herbicide activity against Echinochloa oryzicola assessed as inhibition of root growth compound treated at 3 ppm to seeds measured after 7 days; assay type: functional, organism-based
Echinochloa oryzicola [3] = test: Herbicide activity against Echinochloa oryzicola assessed as inhibition of growth of first sheath compound treated to seeds measured after 7 days; assay type: functional
Echinochloa oryzicola [4] = test: Herbicide activity against Echinochloa oryzicola assessed as inhibition of root growth compound treated to seeds measured after 7 days; assay type: functional

SMILES | growth inhibition (GI) (Echinochloa oryzicola [1]) | growth inhibition (GI) (Echinochloa oryzicola [2]) | growth inhibition (GI) (Echinochloa oryzicola [3]) | I50 (Echinochloa oryzicola [4]) [ppm] | I50 (Echinochloa oryzicola [3]) [ppm]
CCCCC[C@@]12O[C@@H]1CC[C@H]2OCc1ccccc1 (racemic) | inactive | inactive | Active | – | –
CCCCC[C@]12O[C@H]1CC[C@H]2OCc1ccccc1C (racemic) | – | – | Active | 0.25 | –
CCCCC[C@@]12O[C@@H]1CC[C@H]2OCc1ccccc1Cl (racemic) | inactive | inactive | Active | – | –
CCCCC[C@]12O[C@H]1CC[C@H]2OCc1ccccc1Cl (racemic) | – | – | Active | 0.5 | –
CCCCC[C@]12O[C@H]1CC[C@H]2OCc1ccccc1F (racemic) | – | – | – | 0.03 | 0.2
CCCCC[C@@]12O[C@@H]1CC[C@H]2OCc1ccccc1F (racemic) | inactive | inactive | Active | – | –
CCCCC[C@@]12O[C@@H]1CC[C@H]2OCc1ccccc1C (racemic) | inactive | inactive | Active | – | –
CCCCC[C@]12O[C@H]1CC[C@H]2OCc1ccccc1 (racemic) | – | – | – | 0.03 | 0.2
